In patent US20250302815A1, “PROTEIN TYROSINE PHOSPHATASE TARGETING LIGANDS” (CALICO LIFE SCIENCES LLC, priority 2021, published 2025):

Key:
[1] = target: T1, PTPN2 (HiBIT-PTPN2 in 293T.109 cells) (Homo sapiens, UniProt P17706); assay: HiBiT Degradation 293T.109 PTPN2 (Nano-Glo HiBiT Lytic Assay); format: cell-based; conditions: 24.0 hours
T1 construct: expressed in transfected cells; host or cells: 293T.109 (293T WT from ATCC)
T1 sequence (P17706 1-415): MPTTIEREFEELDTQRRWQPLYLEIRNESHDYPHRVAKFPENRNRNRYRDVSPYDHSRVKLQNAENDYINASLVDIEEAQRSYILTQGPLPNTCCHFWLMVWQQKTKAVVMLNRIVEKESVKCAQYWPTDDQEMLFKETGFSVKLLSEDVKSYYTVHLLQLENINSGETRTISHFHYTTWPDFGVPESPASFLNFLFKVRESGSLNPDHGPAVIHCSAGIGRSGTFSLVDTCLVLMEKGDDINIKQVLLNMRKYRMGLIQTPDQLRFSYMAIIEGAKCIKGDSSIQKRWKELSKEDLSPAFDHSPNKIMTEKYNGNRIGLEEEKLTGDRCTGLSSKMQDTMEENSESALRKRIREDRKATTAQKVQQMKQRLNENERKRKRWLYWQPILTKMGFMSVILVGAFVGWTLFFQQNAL
How it was run: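 293T.109 cells with ectopic N-terminal HiBiT-tagged PTPN2 (5000/well) exposed to compounds for 24 h at 37 °C, 5% CO2; 11-point half-log titration from 10 μM top, duplicates. Remaining HiBiT-PTPN2 read as luminescence with Nano-Glo HiBiT lytic reagent, normalised to untreated cells (0%) and reagent-free wells.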

PTPN2 (B16F10.4 cells) = target: T2, PTPN2 (B16F10.4 cells) (Mus musculus, UniProt Q06180); assay: HiBiT Degradation B16F10.4 PTPN2; format: cell-based; conditions: 24.0 hours
T2 construct: HiBiT; host or cells: B16F10.4
T2 sequence (Q06180 1-406): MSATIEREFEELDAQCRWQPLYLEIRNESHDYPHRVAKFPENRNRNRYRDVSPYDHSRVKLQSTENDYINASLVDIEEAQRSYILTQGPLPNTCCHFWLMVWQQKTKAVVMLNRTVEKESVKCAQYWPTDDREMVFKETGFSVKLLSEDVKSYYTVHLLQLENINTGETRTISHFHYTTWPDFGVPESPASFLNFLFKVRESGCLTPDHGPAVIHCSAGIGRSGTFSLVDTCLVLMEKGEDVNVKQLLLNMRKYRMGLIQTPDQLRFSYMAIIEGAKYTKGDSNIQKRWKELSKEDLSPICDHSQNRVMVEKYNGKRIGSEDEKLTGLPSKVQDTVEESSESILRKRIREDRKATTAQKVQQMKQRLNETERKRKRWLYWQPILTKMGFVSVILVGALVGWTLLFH

| Structure (SMILES) | DC50 [1] [nM] | DC50 (PTPN2 (B16F10.4 cells)) [nM] |
| --- | --- | --- |
| O=C(O)COc1c(C(=O)O)sc(-c2cccc(NC3CCN(S(=O)(=O)Cc4cccc(NC(=O)CNc5ccc6c(c5)CN(C5CCC(=O)NC5=O)C6=O)c4)CC3)c2)c1Cl (stereo not shown) [Example 36, 3-(carboxymethoxy)-4-chloro-5-[3-[[1-[[3-[[2-[[2-(2,6-dioxo-3-piperidyl)-1-oxo-isoindolin-5-yl]amino]acetyl]amino]phenyl]methylsulfonyl]-4-piperidyl]amino]phenyl]thiophene-2-carboxylic acid] | 200 to 1000 | 200 to 1000 |
| CC1(C)C[C@@H](Nc2cccc(-c3sc(C(=O)O)c(OCC(=O)O)c3Cl)c2)CCN1S(=O)(=O)Cc1cccc(NC(=O)N2CCC[C@H](c3ccc4c5c(cccc35)N(C3CCC(=O)NC3=O)C4=O)CC2)c1 (stereo partly drawn) [Example 223, 3-(carboxymethoxy)-4-chloro-5-(3-(((4S)-1-((3-((4S)-4-(1-(2,6-dioxopiperidin-3-yl)-2-oxo-1,2-dihydrobenzo[cd]indol-5-yl)azepane-1-carboxamido)benzyl)sulfonyl)-2,2-dimethylpiperidin-4-yl)amino)phenyl)thiophene-2-carboxylic acid] | 200 to 1000 | 50 to 200 |
| Cn1nc(C2CCC(=O)NC2=O)c2ccc(C3CCN(C(=O)Nc4cccc(CS(=O)(=O)N5CC[C@H](Nc6cccc(-c7sc(C(=O)O)c(OCC(=O)O)c7Cl)c6)CC5(C)C)c4)CC3)cc21 (stereo partly drawn) [Example 143, 3-(carboxymethoxy)-4-chloro-5-[3-[[(4S)-1-[[3-[[4-[3-(2,6-dioxo-3-piperidyl)-1-methyl-indazol-6-yl]piperidine-1-carbonyl]amino]phenyl]methylsulfonyl]-2,2-dimethyl-4-piperidyl]amino]phenyl]thiophene-2-carboxylic acid] | 50 to 200 | 50 to 200 |
| Cn1c(=O)n(C2CCC(=O)NC2=O)c2ccc([C@H]3CCN(C(=O)Nc4cccc(CS(=O)(=O)N5CC[C@H](Nc6cccc(-c7sc(C(=O)O)c(OCC(=O)O)c7Cl)c6)CC5(C)C)c4)CC3(F)F)cc21 (stereo partly drawn) [Example 168, 3-(carboxymethoxy)-4-chloro-5-(3-(((4S)-1-((3-((4R)-4-(1-(2,6-dioxopiperidin-3-yl)-3-methyl-2-oxo-2,3-dihydro-1H-benzo[d]imidazol-5-yl)-3,3-difluoropiperidine-1-carboxamido)benzyl)sulfonyl)-2,2-dimethylpiperidin-4-yl)amino)phenyl)thiophene-2-carboxylic acid] | 50 to 200 | < 50 |
| O=C(O)COc1c(C(=O)O)sc(-c2cccc(NC3CCN(S(=O)(=O)Cc4cccc(NC(=O)CCCCCCNC(=O)CNc5ccc6c(c5)CN(C5CCC(=O)NC5=O)C6=O)c4)CC3)c2)c1Cl (stereo not shown) [Example 25, 3-(carboxymethoxy)-4-chloro-5-[3-[[1-[[3-[7-[[2-[[2-(2,6-dioxo-3-piperidyl)-1-oxo-isoindolin-5-yl]amino]acetyl]amino]heptanoylamino]phenyl]methylsulfonyl]-4-piperidyl]amino]phenyl]thiophene-2-carboxylic acid] | 200 to 1000 | 200 to 1000 |
| Cn1c(=O)n(C2CCC(=O)NC2=O)c2ccc(C3CN(CC(=O)Nc4cccc(CS(=O)(=O)N5CC[C@H](Nc6cccc(-c7sc(C(=O)O)c(OCC(=O)O)c7Cl)c6)CC5(C)C)c4)C3)cc21 (stereo partly shown) [Example 184] | < 50 | 50 to 200 |
| Cn1c(=O)n(C2CCC(=O)NC2=O)c2ccc(C3CCN(C(=O)Nc4cccc(CS(=O)(=O)N5CC[C@@H](Oc6cccc(-c7sc(C(=O)O)c(OCC(=O)O)c7Cl)c6)CC5(C)C)c4)CC3)cc21 (stereo partly drawn) [Example 226, 3-(carboxymethoxy)-4-chloro-5-(3-(((4R)-1-((3-(4-(1-(2,6-dioxopiperidin-3-yl)-3-methyl-2-oxo-2,3-dihydro-1H-benzo[d]imidazol-5-yl)piperidine-1-carboxamido)benzyl)sulfonyl)-2,2-dimethylpiperidin-4-yl)oxy)phenyl)thiophene-2-carboxylic acid] | 200 to 1000 | 50 to 200 |
| Cc1nn(C2CCC(=O)NC2=O)c2ccc(C3CCN(C(=O)Nc4cccc(CS(=O)(=O)N5CC[C@H](Nc6cccc(-c7sc(C(=O)O)c(OCC(=O)O)c7Cl)c6)CC5(C)C)c4)CC3)cc12 (stereo partly drawn) [Example 233, 3-(carboxymethoxy)-4-chloro-5-[3-[[(4S)-1-[[3-[[4-[1-(2,6-dioxo-3-piperidyl)-3-methyl-indazol-5-yl]piperidine-1-carbonyl]amino]phenyl]methylsulfonyl]-2,2-dimethyl-4-piperidyl]amino]phenyl]thiophene-2-carboxylic acid] | 200 to 1000 | 200 to 1000 |
| CC1(C)C[C@@H](Nc2cccc(-c3sc(C(=O)O)c(OCC(=O)O)c3Cl)c2)CCN1S(=O)(=O)Cc1cccc(NC(=O)N2CCC(c3ccc4c(ccn4C4CCC(=O)NC4=O)c3)CC2)c1 (stereo partly drawn) [Example 196, 3-(carboxymethoxy)-4-chloro-5-(3-(((4S)-1-((3-(4-(1-(2,6-dioxopiperidin-3-yl)-1H-indol-5-yl)piperidine-1-carboxamido)benzyl)sulfonyl)-2,2-dimethylpiperidin-4-yl)amino)phenyl)thiophene-2-carboxylic acid] | 200 to 1000 | 200 to 1000 |
| Cn1c(=O)n(C2CCC(=O)NC2=O)c2ccc(CC3CCN(C(=O)Nc4cccc(CS(=O)(=O)N5CC[C@H](Nc6cccc(-c7sc(C(=O)O)c(OCC(=O)O)c7Cl)c6)CC5(C)C)c4)CC3)cc21 (stereo partly drawn) [Example 175, 3-(carboxymethoxy)-4-chloro-5-[3-[[(4S)-1-[[3-[[4-[[1-(2,6-dioxo-3-piperidyl)-3-methyl-2-oxo-benzimidazol-5-yl]methyl]piperidine-1-carbonyl]amino]phenyl]methylsulfonyl]-2,2-dimethyl-4-piperidyl]amino]phenyl]thiophene-2-carboxylic acid] | 50 to 200 | < 50 |
| Cn1c(=O)n(C2CCC(=O)NC2=O)c2ccc(C3CCN(C(=O)Nc4cccc(CS(=O)(=O)N5CCC(Nc6cccc(-c7sc(C(=O)O)c(OCC(=O)O)c7Cl)c6)CC5(C)C)c4F)CC3)cc21 (stereo not shown) [Example 115, 3-(carboxymethoxy)-4-chloro-5-[3-[[1-[[3-[[4-[1-(2,6-dioxo-3-piperidyl)-3-methyl-2-oxo-benzimidazol-5-yl]piperidine-1-carbonyl]amino]-2-fluoro-phenyl]methylsulfonyl]-2,2-dimethyl-4-piperidyl]amino]phenyl]thiophene-2-carboxylic acid] | 50 to 200 | 200 to 1000 |
| Cn1c(=O)n(C2CCC(=O)NC2=O)c2ccc(C3CCN(C(=O)Nc4cc(CS(=O)(=O)N5CCC(Nc6cccc(-c7sc(C(=O)O)c(OCC(=O)O)c7Cl)c6)CC5(C)C)ccc4F)CC3)cc21 (stereo not shown) [Example 114, 3-(carboxymethoxy)-4-chloro-5-[3-[[1-[[3-[[4-[1-(2,6-dioxo-3-piperidyl)-3-methyl-2-oxo-benzimidazol-5-yl]piperidine-1-carbonyl]amino]-4-fluoro-phenyl]methylsulfonyl]-2,2-dimethyl-4-piperidyl]amino]phenyl]thiophene-2-carboxylic acid] | 50 to 200 | < 50 |
| Cn1c(=O)n(C2CCC(=O)NC2=O)c2ccc(N3CCC(NCCNc4cccc(CS(=O)(=O)N5CC[C@H](Nc6cccc(-c7sc(C(=O)O)c(OCC(=O)O)c7Cl)c6)CC5(C)C)c4)CC3)cc21 (stereo partly drawn) [Example 197, 3-(carboxymethoxy)-4-chloro-5-[3-[[(4S)-1-[[3-[2-[[1-[1-(2,6-dioxo-3-piperidyl)-3-methyl-2-oxo-benzimidazol-5-yl]-4-piperidyl]amino]ethylamino]phenyl]methylsulfonyl]-2,2-dimethyl-4-piperidyl]amino]phenyl]thiophene-2-carboxylic acid] | < 50 | 50 to 200 |
| O=C(O)COc1c(C(=O)O)sc(-c2cccc(NC3CCN(S(=O)(=O)Cc4cccc(NC(=O)CCOCCCc5cccc6c5C(=O)N(C5CCC(=O)NC5=O)C6=O)c4)CC3)c2)c1Cl (stereo not shown) [Example 27, 3-(carboxymethoxy)-4-chloro-5-[3-[[1-[[3-[3-[3-[2-(2,6-dioxo-3-piperidyl)-1,3-dioxo-isoindolin-4-yl]propoxy]propanoylamino]phenyl]methylsulfonyl]-4-piperidyl]amino]phenyl]thiophene-2-carboxylic acid] | 200 to 1000 | ≥ 1000 |
